Measurements: US10314826B2, “Methods of treatment of ischemia-induced angiogenesis and arteriogenesis” (UNIVERSITY OF MARYLAND, BALTIMORE, priority 2014, dated 2019)

What was measured:
p53 [1] = test: Blood flow restoration after hindlimb ischemia by LDPI, p53-/- mice (specificity control); type: in vivo, mouse; details: 2 weeks after hindlimb ischemia
Procedure: (§1) All experiments and animal husbandry were performed with approval from the University of California, San Francisco and University of Maryland Institutional Animal Care and Use Committees. Wild-type (p53^+/+), p53-null (p53^−/−), and p53^−/+ heterozygoytes were maintained on a C57Bl/6 background. […] For pharmacological modulation of p53 in vivo, quinacrine or vehicle (sterile water) was administered intraperitoneally at 10 mg/kg/day, beginning 5 days prior to surgery, and continued daily post-operatively until the experimental endpoint; PFT-α or vehicle (10% DMSO) was administered intraperitoneally at 2 mg/kg/day every other day beginning two days prior to surgery and continued until the experimental end-point. […]
(§2) Restoration of blood flow after hindlimb ischemia was assessed by laser Doppler perfusion imaging (LDPI) of the hindlimb paws using a PeriScan PIM 3 System (Perimed AB; Stockholm, Sweden) as previously described. Three successive readings were averaged and expressed as an ischemic index (ischemic paw over contralateral paw). For mesenteric artery ligation, blood flow was measured in the HF or CTL artery as volume-flow with a nanoprobe secured around the artery (0.5 mm nanoprobe, Transonic Systems Inc., Ithaca, N.Y.) in anesthetized mice. Flow was averaged over ten minutes and expressed as an arterial index (HF artery over CTL artery).

HIF-1α = test: Immunoblot of HIF-1α protein in ischemic tissue after hindlimb ischemia; type: in vivo, mouse
Procedure: (§3) All experiments and animal husbandry were performed with approval from the University of California, San Francisco and University of Maryland Institutional Animal Care and Use Committees. Wild-type (p53^+/+), p53-null (p53^−/−), and p53^−/+ heterozygoytes were maintained on a C57Bl/6 background. […]
(§4) TA tissue from ischemic and control limbs from were harvested and pulverized in liquid nitrogen. For whole cell lysates, pulverized tissue was incubated in a modified RIPA buffer (50 mM Tris-HCl, pH 7.4; 1% SDS; 1% NP-40; 0.25% sodium deoxycholate; 1 mM PMSF; 1 mM DTT; Complete Mini, EDTA-free protease inhibitor cocktail and PhosStop phosphatase inhibitor tablets (Roche Applied Science; Indianapolis, Ind.), strained, and sonicated 3 times for 10 seconds. Samples were centrifuged at 10,000 G for ten minutes at 4 C, and the supernatant preserved. Protein concentration was measured using a BCA Protein Assay Kit. A total of 20 μg of protein was resolved on a 4-12% Bis-Tris gradiant polyacrylamide gel (Invitrogen; Carlsbad, Calif.) under reduced conditions and transferred to a PVDF membrane (Amersham Biosciences; Pittsburgh, Pa.). […]

VEGF = test: Immunoblot of VEGF protein in ischemic tissue after hindlimb ischemia; type: in vivo, mouse
Procedure: as §3, §4

p53 [2] = molecular target: T1, p53 (Mus musculus, UniProt P02340); test: Blood flow restoration after hindlimb ischemia by laser Doppler perfusion imaging (LDPI), p53+/+ mice; type: in vivo; parameters: from tissue; host or cells: live C57Bl/6 p53+/+ mice (hindlimb muscle and arteries); details: 2 weeks after hindlimb ischemia, vs vehicle
Procedure: as §1, §2

p53 [3] = molecular target: T1, p53; test: Capillary density in ischemic tibialis anterior muscle after hindlimb ischemia; type: in vivo; parameters: from tissue; host or cells: live C57Bl/6 p53+/+ mice (hindlimb muscle and arteries); details: p53+/+ mice, vs vehicle
p53 [4] = molecular target: T1, p53; test: Collateral artery development (arteriogenesis, gracilis artery index) after hindlimb ischemia; type: in vivo; parameters: from tissue; host or cells: live C57Bl/6 p53+/+ mice (hindlimb muscle and arteries); details: p53+/+ mice, vs vehicle
Procedure: All experiments and animal husbandry were performed with approval from the University of California, San Francisco and University of Maryland Institutional Animal Care and Use Committees. Wild-type (p53^+/+), p53-null (p53^−/−), and p53^−/+ heterozygoytes were maintained on a C57Bl/6 background. […] For pharmacological modulation of p53 in vivo, quinacrine or vehicle (sterile water) was administered intraperitoneally at 10 mg/kg/day, beginning 5 days prior to surgery, and continued daily post-operatively until the experimental endpoint; PFT-α or vehicle (10% DMSO) was administered intraperitoneally at 2 mg/kg/day every other day beginning two days prior to surgery and continued until the experimental end-point. Mesenteric artery ligation was performed on 8- to 12-week old male wild-type and p53^−/− mice as described previously with modifications. A laparotomy was performed and the small intestine exposed and suffused with warmed saline. […] The control artery (CTL) was considered a straight artery three arteries from the site of ligation. […]
Independent experiments with separate animal cohorts for capillary and larger artery analysis were performed. […] Vascular regions were quantified individually and normalized to the contralateral control muscle. […] Two 5 μm sections in two separate areas 0.5 mm apart were measured and the results averaged. […]

p53 [5] = molecular target: T1, p53; test: Diabetic ischemia model of hindlimb ischemia; type: in vivo; parameters: relieving ischemia in a clinically relevant diabetic ischemia model of hindlimb ischemia; from tissue; host or cells: animal model of diabetic hindlimb ischemia (not described further); details: clinically relevant diabetic ischemia model of hindlimb ischemia
VSMC = details: report of Chavala et al [26]; cited from earlier work
endothelial cells [6] = details: report of Chavala et al [26]; cited from earlier work
endothelial cells [7] = details: report of Chavala et al [26]; cited from earlier work; remark: listed apart in the source
p53 [8] = details: report of Chavala et al [26]; cited from earlier work
aortic rings = test: Endothelial outgrowth aortic ring assay under hypoxic conditions; type: cell-based, mouse; details: 20 μM quinacrine, vs vehicle-treated controls
[9] = PFT-α-treated mice, 3 days after surgery
[10] = PFT-α 2 mg/kg/day every other day intraperitoneally
[11] = quinacrine-treated mice, 7 days after hindlimb ischemia
[12] = quinacrine 10 mg/kg/day intraperitoneally

T1 sequence (P02340 whole entry, the tested form may be a part): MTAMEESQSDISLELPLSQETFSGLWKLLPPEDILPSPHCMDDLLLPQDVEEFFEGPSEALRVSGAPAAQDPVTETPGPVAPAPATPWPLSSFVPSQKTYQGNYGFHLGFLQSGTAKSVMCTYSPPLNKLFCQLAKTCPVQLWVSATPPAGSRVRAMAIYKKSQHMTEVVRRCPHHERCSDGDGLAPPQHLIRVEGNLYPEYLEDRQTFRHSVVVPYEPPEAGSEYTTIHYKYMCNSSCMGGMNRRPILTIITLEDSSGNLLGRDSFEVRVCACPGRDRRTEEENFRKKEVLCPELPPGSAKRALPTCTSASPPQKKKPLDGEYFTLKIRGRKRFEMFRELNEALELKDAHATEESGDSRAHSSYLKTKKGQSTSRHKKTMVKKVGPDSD

SMILES: Cc1ccc(C(=O)Cn2c3c(sc2=N)CCCC3)cc1 [PFT-α, pifithrin-α]
- blood flow restoration after ischemia in p53-/- mice (LDPI) (p53 [1]; PFT-α): had no effect on blood flow restoration
- HIF-1α protein levels (HIF-1α; [9]): increase
- VEGF protein levels (VEGF; [9]): increase
- blood flow restoration after ischemia (LDPI) (p53 [2]; [10]): enhanced blood flow restoration
- capillary growth (capillary counts) (p53 [3]; [10]): No difference in capillary growth was detected
- collateral vessel formation (gracilis artery index) (p53 [4]; PFT-α 2 mg/kg/day every other day intraperitoneally, 2 weeks after hindlimb ischemia): collateral vessel formation increased
- arteriogenesis and relief of ischemia (p53 [5]): highly effective at increasing arteriogenesis and relieving ischemia

SMILES: COc1ccc(C2=N[C@@H](c3ccc(Cl)cc3)[C@@H](c3ccc(Cl)cc3)N2C(=O)N2CCNC(=O)C2)c(OC(C)C)c1 [Nutlin-3]
- proliferation of VSMC (VSMC): inhibited proliferation
- proliferation of endothelial cells (endothelial cells [6]): inhibited proliferation
- apoptosis in endothelial cells (endothelial cells [7]): induced apoptosis
- pathologic retinal angiogenesis (p53 [8]): inhibit pathologic retinal angiogenesis

SMILES: CCN(CC)CCCC(C)Nc1c2ccc(Cl)cc2nc2ccc(OC)cc12 (stereo not drawn) [quinacrine]
- blood flow after ischemia in p53-/- mice (LDPI) (p53 [1]; quinacrine): had no effect on blood flow
- HIF-1α protein levels (HIF-1α; [11]): suppressed
- VEGF protein levels (VEGF; [11]): suppressed
- endothelial outgrowth from aortic rings (aortic rings): significantly inhibited endothelial outgrowth
- blood flow after ischemia (LDPI) (p53 [2]; [12]): significantly attenuated the improvement in blood flow
- capillary density (p53 [3]; [12]): did not affect capillary density
- collateral development (larger vessel growth) (p53 [4]; quinacrine 10 mg/kg/day intraperitoneally, hindlimb ischemia): did impair collateral development
